Experimental data as given in PMC10692473 (Acta Pharmaceutica Sinica. B, 2023).
≈ marks a conversion by molar mass, not a printed value.

Experiments:
S. aureus gyrase = S. aureus gyrase (Staphylococcus aureus, UniProt P0A0K8); assay: Gyrase inhibitory assay; format: biochemical
E. coli gyrase = E. coli gyrase (Escherichia coli, UniProt P0AES6); assay: Gyrase inhibitory assay; format: biochemical
S. aureus (ATCC29213) = assay: Antibacterial assay; details: Staphylococcus aureus, ATCC29213, read-out: MIC S. aureus (ATCC29213)
E. coli (ATCC25922) = assay: Antibacterial assay; details: Escherichia coli, ATCC25922, read-out: MIC E. coli (ATCC25922)

Chain of S. aureus gyrase (P0A0K8 whole entry): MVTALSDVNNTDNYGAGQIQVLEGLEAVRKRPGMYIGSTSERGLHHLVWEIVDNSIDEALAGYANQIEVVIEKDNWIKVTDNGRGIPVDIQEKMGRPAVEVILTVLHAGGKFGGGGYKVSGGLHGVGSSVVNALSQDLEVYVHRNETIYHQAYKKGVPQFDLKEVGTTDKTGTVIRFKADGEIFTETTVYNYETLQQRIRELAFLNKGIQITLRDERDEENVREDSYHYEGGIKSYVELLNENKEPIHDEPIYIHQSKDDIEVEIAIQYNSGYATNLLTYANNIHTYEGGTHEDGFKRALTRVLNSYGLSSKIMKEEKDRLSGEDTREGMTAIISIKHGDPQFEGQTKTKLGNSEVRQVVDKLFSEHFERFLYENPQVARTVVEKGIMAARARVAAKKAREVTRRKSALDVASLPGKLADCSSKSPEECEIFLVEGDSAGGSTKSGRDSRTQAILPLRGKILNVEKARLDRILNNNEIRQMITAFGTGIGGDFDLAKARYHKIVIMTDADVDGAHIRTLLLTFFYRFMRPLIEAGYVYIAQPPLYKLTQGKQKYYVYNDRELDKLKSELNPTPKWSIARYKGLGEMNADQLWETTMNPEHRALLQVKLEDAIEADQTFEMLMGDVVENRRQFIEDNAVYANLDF
Chain of S. aureus gyrase (P20831 whole entry partner): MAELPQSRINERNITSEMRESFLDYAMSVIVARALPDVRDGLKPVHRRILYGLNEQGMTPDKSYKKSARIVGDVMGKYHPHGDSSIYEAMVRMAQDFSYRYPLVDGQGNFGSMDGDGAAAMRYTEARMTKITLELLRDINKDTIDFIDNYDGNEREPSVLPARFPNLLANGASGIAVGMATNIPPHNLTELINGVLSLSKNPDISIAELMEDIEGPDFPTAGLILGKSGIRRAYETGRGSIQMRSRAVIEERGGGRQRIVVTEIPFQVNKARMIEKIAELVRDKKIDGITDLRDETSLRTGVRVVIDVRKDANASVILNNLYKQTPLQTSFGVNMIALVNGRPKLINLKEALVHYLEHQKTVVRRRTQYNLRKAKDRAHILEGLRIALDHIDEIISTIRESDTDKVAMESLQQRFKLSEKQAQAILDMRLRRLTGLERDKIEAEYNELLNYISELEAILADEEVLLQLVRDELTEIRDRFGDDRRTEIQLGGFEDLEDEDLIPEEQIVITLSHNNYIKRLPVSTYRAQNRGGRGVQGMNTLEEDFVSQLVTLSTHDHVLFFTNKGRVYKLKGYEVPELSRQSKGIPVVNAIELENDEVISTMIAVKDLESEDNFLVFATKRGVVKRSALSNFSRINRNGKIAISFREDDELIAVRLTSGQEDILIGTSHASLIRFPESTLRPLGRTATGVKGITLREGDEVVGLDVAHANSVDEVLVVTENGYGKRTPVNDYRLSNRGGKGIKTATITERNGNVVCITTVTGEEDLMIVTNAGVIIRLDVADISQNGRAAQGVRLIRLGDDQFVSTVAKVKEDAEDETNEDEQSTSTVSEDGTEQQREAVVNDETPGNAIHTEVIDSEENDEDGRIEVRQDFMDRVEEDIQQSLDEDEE

| Compound | IC50 (S. aureus gyrase) [µM] | IC50 (E. coli gyrase) [µM] | MIC (S. aureus (ATCC29213)) [mg/L] | MIC (E. coli (ATCC25922)) [mg/L] |
| --- | --- | --- | --- | --- |
| CO[C@H]1CN(c2ccc(C#N)nn2)CC[C@H]1NC(=O)c1[nH]c(C)c(Cl)c1Cl [Compound 20, 3,4-Dichloro-N-((3S,4R)-1-(6-cyanopyridazin-3-yl)-3-methoxypiperidin-4-yl)-5-methyl-1H-pyrrole-2-carboxamide] | 0.701 ± 0.248 | > 10 | 0.06 (≈ 0.147 µM) | > 128 |
| CO[C@H]1CN(c2ccc(C(=O)NCCN)nn2)CC[C@H]1NC(=O)c1[nH]c(C)c(Cl)c1Cl [Compound 32, N-(2-Aminoethyl)-6-((3S,4R)-4-(3,4-dichloro-5-methyl-1H-pyrrole-2-carboxamido)-3-methoxypiperidin-1-yl)pyridazine-3-carboxamide] | > 10 | > 10 | 32 (≈ 68 µM) | 64 (≈ 136 µM) |
| CO[C@H]1CN(c2ccc(C(C)=O)nn2)CC[C@H]1NC(=O)c1[nH]c(C)c(Cl)c1Cl [Compound 21, N-((3S,4R)-1-(6-Acetylpyridazin-3-yl)-3-methoxypiperidin-4-yl)-3,4-dichloro-5-methyl-1H-pyrrole-2-carboxamide] | 0.825 ± 0.303 | > 10 | 0.06 (≈ 0.141 µM) | > 128 |
| COC(=O)c1cnc(N2CC[C@@H](NC(=O)c3[nH]c(C)c(Cl)c3Cl)[C@@H](OC)C2)cn1 [Compound 13, Methyl-5-((3S,4R)-4-(3,4-dichloro-5-methyl-1H-pyrrole-2-carboxamido)-3-methoxypiperidin-1-yl)pyrazine-2-carboxylate] | > 10 | > 10 | > 128 | > 128 |
| CO/N=C(\C)c1ccc(N2CC[C@@H](NC(=O)c3[nH]c(C)c(Cl)c3Cl)[C@@H](OC)C2)nn1 [Compound 24, 3,4-Dichloro-N-((3S,4R)-3-methoxy-1-(6-((E)-1-(methoxyimino)ethyl)pyridazin-3-yl)piperidin-4-yl)-5-methyl-1H-pyrrole-2-carboxamide] | 2.07 ± 0.568 | > 10 | 0.03 (≈ 0.0659 µM) | > 128 |
| CO[C@H]1CN(c2ccc(CN)nn2)CC[C@H]1NC(=O)c1[nH]c(C)c(Cl)c1Cl [Compound 34, N-((3S,4R)-1-(6-(Aminomethyl)pyridazin-3-yl)-3-methoxypiperidin-4-yl)-3,4-dichloro-5-methyl-1H-pyrrole-2-carboxamide] | > 10 | > 10 | 32 (≈ 77.4 µM) | > 128 |
| CCOC(=O)c1nnc(N2CC[C@@H](NC(=O)c3[nH]c(C)c(Cl)c3Cl)[C@@H](OC)C2)o1 [Compound 16, Ethyl-5-((3S,4R)-4-(3,4-dichloro-5-methyl-1H-pyrrole-2-carboxamido)-3-methoxypiperidin-1-yl)-1,3,4-oxadiazole-2-carboxylate] | 2.34 | > 10 | 0.5 (≈ 1.12 µM) | 128 (≈ 287 µM) |
| CO[C@H]1CN(c2ccc(C(F)(F)F)nn2)CC[C@H]1NC(=O)c1[nH]c(C)c(Cl)c1Cl [Compound 19, 3,4-Dichloro-N-((3S,4R)-3-methoxy-1-(6-(trifluoromethyl)pyridazin-3-yl)piperidin-4-yl)-5-methyl-1H-pyrrole-2-carboxamide] | 0.12 ± 0.047 | 9.31 ± 0.923 | 0.03 (≈ 0.0663 µM) | 16 (≈ 35.4 µM) |
| CNC(=O)c1ccc(N2CC[C@@H](NC(=O)c3[nH]c(C)c(Cl)c3Cl)[C@@H](OC)C2)nn1 [Compound 30, 6-((3S,4R)-4-(3,4-Dichloro-5-methyl-1H-pyrrole-2-carboxamido)-3-methoxypiperidin-1-yl)-N-methylpyridazine-3-carboxamide] | 0.696 ± 0.056 | > 10 | 0.125 (≈ 0.283 µM) | 16 (≈ 36.3 µM) |
| CCOC(=O)c1cnc(N2CC[C@@H](NC(=O)c3[nH]c(C)c(Cl)c3Cl)[C@@H](OC)C2)nc1 [Compound 12, Ethyl 2-((3S,4R)-4-(3,4-dichloro-5-methyl-1H-pyrrole-2-carboxamido)-3-methoxy-piperidin-1-yl)pyrimidine-5-carboxylate] | 4.87 ± 0.02 | > 10 | 0.125 (≈ 0.274 µM) | > 128 |
| CO[C@H]1CN(c2ccc(/C(C)=N/OCC(=O)O)nn2)CC[C@H]1NC(=O)c1[nH]c(C)c(Cl)c1Cl [Compound 25, 2-((((E)-1-(6-((3S,4R)-4-(3,4-Dichloro-5-methyl-1H-pyrrole-2-carboxamido)-3-methoxypiperidin-1-yl)pyridazine-3-yl)ethylidene)amino)oxy)acetic acid] | 0.172 ± 0.056 | > 10 | 0.25 (≈ 0.501 µM) | > 128 |
| CO[C@H]1CN(c2ccc(F)nn2)CC[C@H]1NC(=O)c1[nH]c(C)c(Cl)c1Cl [Compound 17, 3,4-Dichloro-N-((3S,4R)-1-(6-fluoropyridazin-3-yl)-3-methoxypiperidin-4-yl)-5-methyl-1H-pyrrole-2-carboxamide] | 0.084 ± 0.037 | 8.21 ± 1.21 | 0.25 (≈ 0.621 µM) | 16 (≈ 39.8 µM) |
| COC(=O)c1ccc(N2CC[C@@H](NC(=O)c3[nH]c(C)c(Cl)c3Cl)[C@@H](OC)C2)nc1 [Compound 11, Methyl 6-((3S,4R)-4-(3,4-dichloro-5-methyl-1H-pyrrole-2-carboxamido)-3-methoxy-piperidin-1-yl)nicotinate] | 3.35 ± 0.154 | > 10 | 1 (≈ 2.27 µM) | > 128 |
| CCNC(=O)c1ccc(N2CC[C@@H](NC(=O)c3[nH]c(C)c(Cl)c3Cl)[C@@H](OC)C2)nn1 [Compound 31, 6-((3S,4R)-4-(3,4-Dichloro-5-methyl-1H-pyrrole-2-carboxamido)-3-methoxypiperidin-1-yl)-N-ethylpyridazine-3-carboxamide] | 0.576 ± 0.045 | > 10 | 0.125 (≈ 0.275 µM) | > 128 |
| CO[C@H]1CN(c2ccc(Br)nn2)CC[C@H]1NC(=O)c1[nH]c(C)c(Cl)c1Cl [Compound 18, N-((3S,4R)-1-(6-Bromopyridazin-3-yl)-3-methoxypiperidin-4-yl)-3,4-dichloro-5-methyl-1H-pyrrole-2-carboxamide] | 0.13 ± 0.017 | 7.42 ± 1.01 | 0.03 (≈ 0.0648 µM) | 4 (≈ 8.64 µM) |
| CO[C@H]1CN(c2ccc(C(=O)N3CCNCC3)nn2)CC[C@H]1NC(=O)c1[nH]c(C)c(Cl)c1Cl [Compound 33, 3,4-Dichloro-N-((3S,4R)-3-methoxy-1-(6-(piperazine-1-carbonyl)pyridazin-3-yl)piperidin-4-yl)-5-methyl-1H-pyrrole-2-carboxamide] | 1.09 ± 0.146 | > 10 | 0.25 (≈ 0.504 µM) | 32 (≈ 64.5 µM) |
| CCOC(=O)c1nnc(N2CC[C@@H](NC(=O)c3[nH]c(C)c(Cl)c3Cl)[C@@H](OC)C2)s1 [Compound 10, Ethyl 5-((3S,4R)-4-(3,4-dichloro-5-methyl-1H-pyrrole-2-carboxamido)-3-methoxy-piperidin-1-yl)-1,3,4-thiadiazole-2-carboxylate] | 0.137 ± 0.013 | 6.87 ± 1.22 | 0.125 (≈ 0.27 µM) | 16 (≈ 34.6 µM) |
| COC(=O)c1cnc(N2CC[C@@H](NC(=O)c3[nH]c(C)c(Cl)c3Cl)[C@@H](OC)C2)s1 [Compound 9, Methyl 2-((3S,4R)-4-(3,4-dichloro-5-methyl-1H-pyrrole-2-carboxamido)-3-methoxypiperidin-1-yl)thiazole-5-carboxylate] | 1.45 ± 0.111 | > 10 | 0.125 (≈ 0.279 µM) | > 128 |
